Like-named read-outs stand apart in the source and are kept apart here.
Key:
SW620 = assay: CCK-8 proliferation, SW620; assay type: cell-based; settings: Homo sapiens, SW-620; CCK-8; 96 hours; read-out: Inhibitory activity (IC50) on tumor cell proliferation, SW620
In short: (§1)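 Tumor cells were cultured at 37°C with 5% CO2, seeded, and after 24h treated with compounds at 10 concentrations starting at 10µM (5-fold serial dilutions).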

MGC-803 = assay: CCK-8 proliferation, MGC-803 (heads: MGC80-3, MGC803); assay type: cell-based, Human; settings: Homo sapiens, MGC-803, CCK-8, 72 hours
In short: as §1

CCRF-CEM = assay: CCK-8 proliferation, CCRF-CEM; assay type: cell-based, Human; settings: Homo sapiens, CCRF-CEM; CCK-8; 96 hours; read-out: Inhibitory activity (IC50) on tumor cell proliferation, CCRF-CEM
In short: as §1

Jurkat = assay: CCK-8 proliferation, Jurkat; assay type: cell-based, Human; settings: Homo sapiens, Jurkat; CCK-8; 96 hours; read-out: Inhibitory activity (IC50) on tumor cell proliferation, Jurkat
In short: as §1

CAL-62 = assay: CCK-8 proliferation, CAL-62; assay type: cell-based; settings: Homo sapiens, 72 hours, read-out: Inhibitory activity (IC50) on tumor cell proliferation, CAL-62
Description: (§2) The tumor cells used herein were cultured in a cell culture medium listed in table A1 at 37°C in an incubator with 5% CO2. Prior to experimentation, all cell lines used were correctly identified by STR profiling, and tested negative for mycoplasma contamination using a mycoplasma detection kit through routine screenings. Table A1. Tumor cells and cell culture medium used in the present disclosure
(§3) IC50 values of the compounds of the present disclosure (including the compounds in Table 1, and compounds of examples) were measured using the Meilun Cell Counting Kit-8 kit from Dalian Meilun Biotech Co., Ltd. Assay details are as follows: tumor cells were seeded in a 96-well plate at a density listed in Table A2. After 24h, 100 µL of the inoculated cells were treated with 0.5µL of the compounds of the present disclosure (including the compounds in Tables 1 and 2, and compounds of examples) at 10 different successively decreasing concentrations (starting at the highest concentration of 10µM; 5-fold serial dilutions). After the cells were treated with the compounds of the present disclosure for a period of time, the cell viability detection reagent was added to the culture medium for cell viability assessment according to the instructions provided with the CCK-8 kit. […] The growth inhibition of the compounds of the present disclosure on cells was plotted by Prism Graphpad software, and the IC50 values of the compounds of the present disclosure were calculated therefrom. […] Seeding protocol and treatment time for tumor cells

Vcap = assay: CCK-8 proliferation, Vcap; assay type: cell-based; settings: Homo sapiens, 96 hours, read-out: Inhibitory activity (IC50) on tumor cell proliferation, Vcap
Description: as §2
IC50 values of the compounds of the present disclosure (including the compounds in Table 1, and compounds of examples) were measured using the Meilun Cell Counting Kit-8 kit from Dalian Meilun Biotech Co., Ltd. Assay details are as follows: tumor cells were seeded in a 96-well plate at a density listed in Table A2. After 24h, 100 µL of the inoculated cells were treated with 0.5µL of the compounds of the present disclosure (including the compounds in Tables 1 and 2, and compounds of examples) at 10 different successively decreasing concentrations (starting at the highest concentration of 10µM; 5-fold serial dilutions). […] The growth inhibition of the compounds of the present disclosure on cells was plotted by Prism Graphpad software, and the IC50 values of the compounds of the present disclosure were calculated therefrom. […]

LNcap = assay: CCK-8 proliferation, LNcap; assay type: cell-based; settings: Homo sapiens, LNCaP; CCK-8; 96 hours; read-out: Inhibitory activity (IC50) on tumor cell proliferation, Lncap
In short: as §1

CFPAC-1 = assay: CCK-8 proliferation, CFPAC-1; assay type: cell-based; settings: Homo sapiens, 72 or 96 hours, read-out: Inhibitory activity (IC50) on tumor cell proliferation, CFPAC-1
Description: as §2, §3

BCR-ABL = biological target: T1, BCR-ABL (Homo sapiens, UniProt P00519+P11274+Q96SW2, E27K); assay: Western blot degradation of BCR-ABL (K562 Cell); assay type: cell-based; settings: Table D15
T1 construct: evaluate the effects of the compounds of the present disclosure on the expression of target proteins in cells; endogenous in cells; host or cells: K562
T1 sequence (P11274+P00519 fused, stated change not applied): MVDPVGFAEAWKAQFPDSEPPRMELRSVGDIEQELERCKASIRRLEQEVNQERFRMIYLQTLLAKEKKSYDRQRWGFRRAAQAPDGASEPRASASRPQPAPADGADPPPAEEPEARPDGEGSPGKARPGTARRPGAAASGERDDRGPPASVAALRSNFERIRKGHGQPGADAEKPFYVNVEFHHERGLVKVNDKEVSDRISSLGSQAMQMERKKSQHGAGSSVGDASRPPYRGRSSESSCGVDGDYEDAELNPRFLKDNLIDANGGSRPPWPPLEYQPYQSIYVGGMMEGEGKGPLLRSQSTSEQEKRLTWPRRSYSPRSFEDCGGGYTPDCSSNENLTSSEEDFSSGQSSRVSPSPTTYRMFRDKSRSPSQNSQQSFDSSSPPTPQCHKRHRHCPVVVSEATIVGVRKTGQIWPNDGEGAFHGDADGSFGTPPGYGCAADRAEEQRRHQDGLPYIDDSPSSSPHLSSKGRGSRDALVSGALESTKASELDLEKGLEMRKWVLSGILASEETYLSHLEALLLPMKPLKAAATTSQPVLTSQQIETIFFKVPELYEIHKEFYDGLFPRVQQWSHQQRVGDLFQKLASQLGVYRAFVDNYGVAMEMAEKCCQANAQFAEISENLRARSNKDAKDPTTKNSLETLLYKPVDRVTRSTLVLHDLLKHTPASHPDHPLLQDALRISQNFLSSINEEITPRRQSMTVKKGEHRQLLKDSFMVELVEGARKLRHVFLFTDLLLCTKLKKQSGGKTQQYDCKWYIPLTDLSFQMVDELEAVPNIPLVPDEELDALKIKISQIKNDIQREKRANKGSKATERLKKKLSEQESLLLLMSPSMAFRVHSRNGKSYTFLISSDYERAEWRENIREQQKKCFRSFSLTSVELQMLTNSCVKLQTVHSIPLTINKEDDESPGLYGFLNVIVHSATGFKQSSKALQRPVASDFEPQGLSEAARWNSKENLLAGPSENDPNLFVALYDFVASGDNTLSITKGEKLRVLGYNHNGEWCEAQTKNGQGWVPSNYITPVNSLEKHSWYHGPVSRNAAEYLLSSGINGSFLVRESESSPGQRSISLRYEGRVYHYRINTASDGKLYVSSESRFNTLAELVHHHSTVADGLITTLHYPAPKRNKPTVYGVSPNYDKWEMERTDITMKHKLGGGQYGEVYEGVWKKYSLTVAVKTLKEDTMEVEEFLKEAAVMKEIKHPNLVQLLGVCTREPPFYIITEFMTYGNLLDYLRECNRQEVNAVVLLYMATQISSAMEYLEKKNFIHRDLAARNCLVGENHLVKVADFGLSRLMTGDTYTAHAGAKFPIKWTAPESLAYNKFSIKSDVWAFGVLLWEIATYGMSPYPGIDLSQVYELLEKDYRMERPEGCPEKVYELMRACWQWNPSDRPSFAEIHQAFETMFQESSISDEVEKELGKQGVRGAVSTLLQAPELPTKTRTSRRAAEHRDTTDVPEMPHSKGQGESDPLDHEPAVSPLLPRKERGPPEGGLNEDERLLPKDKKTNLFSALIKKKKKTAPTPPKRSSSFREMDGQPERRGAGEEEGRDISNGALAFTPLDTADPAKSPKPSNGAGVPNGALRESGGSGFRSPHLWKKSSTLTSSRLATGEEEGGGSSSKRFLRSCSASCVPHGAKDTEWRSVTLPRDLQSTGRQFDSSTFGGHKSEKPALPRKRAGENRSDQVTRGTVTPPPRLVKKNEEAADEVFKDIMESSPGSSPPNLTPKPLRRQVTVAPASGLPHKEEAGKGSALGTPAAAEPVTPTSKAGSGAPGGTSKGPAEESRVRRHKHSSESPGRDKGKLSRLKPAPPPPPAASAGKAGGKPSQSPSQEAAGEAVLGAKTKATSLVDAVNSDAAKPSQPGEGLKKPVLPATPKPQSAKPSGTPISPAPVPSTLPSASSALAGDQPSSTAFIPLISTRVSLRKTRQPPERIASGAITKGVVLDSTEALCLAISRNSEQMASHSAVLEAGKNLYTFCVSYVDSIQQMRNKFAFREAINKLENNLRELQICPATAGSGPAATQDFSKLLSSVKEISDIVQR
T1 sequence (Q16531 whole entry, stated change not applied, further chain): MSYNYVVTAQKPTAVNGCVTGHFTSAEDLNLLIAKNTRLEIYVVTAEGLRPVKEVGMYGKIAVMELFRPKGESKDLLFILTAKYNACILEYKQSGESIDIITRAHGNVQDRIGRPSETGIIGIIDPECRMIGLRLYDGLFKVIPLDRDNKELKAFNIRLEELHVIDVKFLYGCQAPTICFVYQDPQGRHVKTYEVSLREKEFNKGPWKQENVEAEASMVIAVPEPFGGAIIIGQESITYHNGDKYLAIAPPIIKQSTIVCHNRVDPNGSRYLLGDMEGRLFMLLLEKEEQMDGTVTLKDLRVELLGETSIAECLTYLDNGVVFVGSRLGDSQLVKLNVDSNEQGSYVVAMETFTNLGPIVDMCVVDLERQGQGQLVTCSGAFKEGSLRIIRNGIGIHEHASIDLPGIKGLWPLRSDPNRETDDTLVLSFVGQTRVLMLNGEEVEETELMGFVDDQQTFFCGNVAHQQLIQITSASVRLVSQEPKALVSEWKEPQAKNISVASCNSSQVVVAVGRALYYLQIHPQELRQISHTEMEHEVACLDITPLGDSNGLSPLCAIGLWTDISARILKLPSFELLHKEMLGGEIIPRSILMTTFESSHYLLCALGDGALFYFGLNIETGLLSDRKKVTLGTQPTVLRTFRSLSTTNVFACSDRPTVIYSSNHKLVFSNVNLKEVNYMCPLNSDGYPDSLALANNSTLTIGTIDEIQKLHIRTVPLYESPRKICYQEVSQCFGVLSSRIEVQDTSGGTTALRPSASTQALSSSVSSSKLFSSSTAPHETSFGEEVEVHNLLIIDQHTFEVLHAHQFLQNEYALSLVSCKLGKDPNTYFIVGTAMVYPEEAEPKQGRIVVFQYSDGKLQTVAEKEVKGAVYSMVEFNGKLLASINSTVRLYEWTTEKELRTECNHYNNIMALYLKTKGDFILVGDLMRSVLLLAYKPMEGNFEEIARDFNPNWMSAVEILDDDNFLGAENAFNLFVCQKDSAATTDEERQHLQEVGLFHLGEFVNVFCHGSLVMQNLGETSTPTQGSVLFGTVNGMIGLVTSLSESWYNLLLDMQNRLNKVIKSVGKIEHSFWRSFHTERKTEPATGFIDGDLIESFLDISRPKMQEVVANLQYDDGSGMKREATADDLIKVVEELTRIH
T1 sequence (Q96SW2 whole entry, stated change not applied): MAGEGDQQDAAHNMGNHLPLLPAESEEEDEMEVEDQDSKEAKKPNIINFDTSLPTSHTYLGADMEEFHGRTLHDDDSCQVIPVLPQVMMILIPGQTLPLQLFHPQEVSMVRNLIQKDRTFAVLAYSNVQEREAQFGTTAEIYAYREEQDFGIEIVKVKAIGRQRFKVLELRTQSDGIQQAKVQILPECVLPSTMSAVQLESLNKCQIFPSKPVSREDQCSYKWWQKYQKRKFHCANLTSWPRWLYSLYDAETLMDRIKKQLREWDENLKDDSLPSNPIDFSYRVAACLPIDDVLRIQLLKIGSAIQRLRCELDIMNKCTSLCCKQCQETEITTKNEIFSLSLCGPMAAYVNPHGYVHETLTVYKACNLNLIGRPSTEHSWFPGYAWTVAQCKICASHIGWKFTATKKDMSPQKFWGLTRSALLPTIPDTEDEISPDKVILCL
Description: (§4) Conventional Western blot assay was performed to evaluate the effects of the compounds of the present disclosure on the expression of target proteins in cells.
(§5) (1) Cell Seeding and Protein Harvesting: The selected cells were processed according to the cell seeding procedure and protein harvesting procedure in Table III-2. Table III-2 Cell Seeding and Protein Harvesting Procedures
(§6) (2) To the collected supernatant, 5X SDS sample loading buffer was added, followed by denaturation at 95°C for 5 minutes. The denatured samples were then separated by SDS-PAGE electrophoresis on a polyacrylamide gel. Proteins were transferred to a nitrocellulose membrane (0.45 µm NC membrane), blocked with blocking buffer at room temperature for 1 hour, and subjected to antibody incubation and development procedures according to the antibody manufacturer's instructions (Cell Signaling Technology).
(§7) Half-Maximal Degradation Concentration value (the drug concentration required for degrading proteins by 50%, abbreviated as DC50) reads method: comparing the grayscale values of Western blot bands from drug-treated samples with those from blank DMSO-treated controls, and identifying the drug concentration range at which the grayscale value is half that of the DMSO-treated control bands.
DC50 values can be calculated using ImageJ software to measure grayscale values of Western blot bands from drug-treated samples. The concentration-response curve is fitted to estimate the drug concentration corresponding to half the grayscale value.
Target protein remaining (%) refers to the percentage of target protein remaining in hPBMC cells after treatment with protein degrader compounds.
Calculation method for target protein remaining (%): Use ImageJ software to measure grayscale values of Western blot bands from drug (protein degrader)-treated samples. The grayscale value of drug-treated bands is divided by that of internal control protein bands, and the resulting quotient is normalized to obtain the relative percentage of remaining target protein after protein degrader treatment. […]

BXPC-3 = assay: CCK-8 proliferation, BXPC-3; assay type: cell-based; settings: Homo sapiens, 96 hours, read-out: Inhibitory activity (IC50) on tumor cell proliferation, BXPC-3
In short: as §1

THP-1 = assay: CCK-8 proliferation, THP-1; assay type: cell-based; settings: Homo sapiens, 72 hours, read-out: Inhibitory activity (IC50) on tumor cell proliferation, THP-1
In short: as §1

H520 = assay: CCK-8 proliferation, H520; assay type: cell-based; settings: Homo sapiens, NCI-H520, 96 hours, read-out: Inhibitory activity (IC50) on tumor cell proliferation, H520
Description: as §2, §3

[1] = biological target: T2, human Cereblon WT GST-tagged protein (Homo sapiens, UniProt Q96SW2); assay: CRBN binding, HTRF (CEREBLON BINDING kit); settings: Table II-2, CRBN binding screening, HTRF
T2 construct: purchased CISBIO 64BDCRBNPEH
T2 sequence (Q96SW2 whole entry): as the sequence (Q96SW2 whole entry, stated change not applied) above
In short: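 Competitive HTRF: GST-tagged human WT Cereblon mixed with compound, Thalidomide-Re tracer and GST Eu antibody, incubated 3 h at room temperature. Signals read at 620 and 665 nm.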

AR = biological target: T3, AR (Homo sapiens, UniProt P10275+Q96SW2, T878A); assay: Western blot degradation of AR (LnCap Cell); assay type: cell-based; settings: Table D11
T3 construct: evaluate the effects of the compounds of the present disclosure on the expression of target proteins in cells; endogenous in cells; host or cells: LnCap
T3 sequence (P10275 whole entry T878A): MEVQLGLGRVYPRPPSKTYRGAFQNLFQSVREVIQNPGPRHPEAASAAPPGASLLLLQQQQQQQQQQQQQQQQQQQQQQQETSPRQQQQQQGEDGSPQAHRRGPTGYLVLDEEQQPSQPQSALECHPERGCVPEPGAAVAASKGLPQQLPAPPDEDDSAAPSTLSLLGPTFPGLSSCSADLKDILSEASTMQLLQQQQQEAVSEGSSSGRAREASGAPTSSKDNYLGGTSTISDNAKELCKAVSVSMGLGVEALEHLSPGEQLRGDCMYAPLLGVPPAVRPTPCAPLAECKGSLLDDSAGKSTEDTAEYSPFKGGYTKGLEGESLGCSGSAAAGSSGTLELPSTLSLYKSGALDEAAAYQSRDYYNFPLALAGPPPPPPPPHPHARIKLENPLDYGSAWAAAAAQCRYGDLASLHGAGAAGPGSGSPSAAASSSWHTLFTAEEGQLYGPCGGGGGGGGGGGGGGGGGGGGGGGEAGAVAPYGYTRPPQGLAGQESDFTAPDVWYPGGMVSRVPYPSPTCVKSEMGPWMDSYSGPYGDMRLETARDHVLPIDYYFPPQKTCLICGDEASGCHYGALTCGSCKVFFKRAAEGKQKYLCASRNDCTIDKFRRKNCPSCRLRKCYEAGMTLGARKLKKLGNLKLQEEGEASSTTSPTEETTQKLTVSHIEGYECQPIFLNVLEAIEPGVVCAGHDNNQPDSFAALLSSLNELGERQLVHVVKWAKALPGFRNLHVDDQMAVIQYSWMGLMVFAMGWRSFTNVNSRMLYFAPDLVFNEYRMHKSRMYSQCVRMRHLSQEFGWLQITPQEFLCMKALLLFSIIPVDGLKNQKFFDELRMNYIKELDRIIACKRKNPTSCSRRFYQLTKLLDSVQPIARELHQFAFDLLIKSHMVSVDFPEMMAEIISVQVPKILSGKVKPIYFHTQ
T3 sequence (Q96SW2 whole entry): as the sequence (Q96SW2 whole entry, stated change not applied) above
T3 sequence (Q16531 whole entry partner): as the sequence (Q16531 whole entry, stated change not applied, further chain) above
Description: as §4, §5, §6, §7
DC50 values can be calculated using ImageJ software to measure grayscale values of Western blot bands from drug-treated samples. […]

DU-145 = assay: CCK-8 proliferation, DU-145; assay type: cell-based; settings: Homo sapiens, 96 hours, read-out: Inhibitory activity (IC50) on tumor cell proliferation, DU-145
Description: as §2, §3

[2] = read-out: Inhibitory activity (IC50) on tumor cell proliferation, MGC803

| SMILES | IC50 (SW620) [nM] | IC50 (CCRF-CEM) [nM] | IC50 (Jurkat) [nM] | IC50 (CAL-62) [nM] | IC50 (Vcap) [nM] | IC50 (MGC-803; [2]) [nM] | Degradation of substrate protein BCR-ABL (substrate protein remaining %) (BCR-ABL) | Degradation of substrate protein AR (substrate protein remaining %) (AR) | also measured |
| --- | --- | --- | --- | --- | --- | --- | --- | --- | --- |
| O=C1CC[C@H](N2Cc3cc(N4CCN(CC5CCN(c6ccc([C@@H]7c8ccc(O)cc8CC[C@@H]7c7ccccc7)cc6)CC5)CC4)ccc3C2=O)C(=O)N1 [ARV-471, reference compound] | 1000 to 5000 | > 10000 | > 10000 | > 10000 | > 10000 |  |  |  | IC50 (MGC-803; read-out: Inhibitory activity (IC50) on tumor cell proliferation, MGC80-3): > 10000 nM |
| O=C1CCC(c2ccc(CN3CCN(c4ccc([C@@H]5c6ccc(O)cc6CC[C@@H]5c5ccccc5)cc4)CC3)cc2)C(=O)N1 (stereo partly drawn) [GT-03856, 3-(4-((4-(4-((1R,2S)-6-hydroxy-2-phenyl-1,2,3,4-tetrahydronaphthalen-1-yl)phenyl)piperazin-1-yl)methyl)phenyl)piperidine-2,6-dione] |  | 100 to 500 | 100 to 500 | 100 to 500 | 500 to 1000 |  |  |  |  |
| Cc1ccc(C(=O)Nc2ccc(CN3CCN(Cc4ccc(C5CCC(=O)NC5=O)c(F)c4)CC3)c(C(F)(F)F)c2)cc1C#Cc1cnc2cccnn12 (stereo not shown) [GT-03937, N-(4-((4-(4-(2,6-dioxopiperidin-3-yl)-3-fluorobenzyl)piperazin-1-yl)methyl)-3-(trifluoromethyl)phenyl)-3-(imidazo[1,2-b]pyridazin-3-ylethynyl)-4-methylbenzamide] | 50 to 100 | 50 to 100 | 50 to 100 |  |  | 100 to 500 | A (A is defined as 0% ≤ substrate protein remaining % ≤ 80%) |  | IC50 (LNcap): 50 to 100 nM; IC50 (CFPAC-1): 100 to 500 nM |
| O=C1CCC(c2ccc(CN3CCC(N4CCN(c5ncc(C(=O)Nc6ccc(OC(F)(F)Cl)cc6)cc5-c5cc[nH]n5)CC4)CC3)cc2F)C(=O)N1 (stereo not shown) [GT-04059, N-(4-(chlorodifluoromethoxy)phenyl)-6-(4-(1-(4-(2,6-dioxopiperidin-3-yl)-3-fluorobenzyl)piperidin-4-yl)piperazin-1-yl)-5-(1H-pyrazol-3-yl)nicotinamide] | 100 to 500 |  |  |  |  | 500 to 1000 | A (A is defined as 0% ≤ substrate protein remaining % ≤ 80%) |  |  |
| Cn1cc(-c2cc(S(C)(=O)=O)ccc2OCc2cccc(NC3CCC(=O)NC3=O)c2)c2cc[nH]c2c1=O (stereo not shown) [GT-04641, 3-((3-((2-(6-methyl-7-oxo-6,7-dihydro-1H-pyrrolo[2,3-c]pyridin-4-yl)-4-(methylsulfonyl)phenoxy)methyl)phenyl)amino)piperidine-2,6-dione] |  |  |  |  |  |  |  | A (A is defined as 0% ≤ substrate protein remaining % ≤ 80%) | IC50 (BXPC-3): 500 to 1000 nM; IC50 (THP-1): 500 to 1000 nM; IC50 (H520): 500 to 1000 nM; inhibition at 0.5 µM ([1]; at 0.5µM, read-out: Inhibition rate (%) at 0.5µM): 20 to 30%; inhibition at 2 µM ([1]; at 2 µM, read-out: Inhibition rate (%) at 2 µM): 60 to 80% |
| Cc1ccc(-c2c(C)noc2C)cc1N(CC1CCN(Cc2ccc(N3CCC(=O)NC3=O)cn2)CC1)c1ccc(C2(C#N)CC2)cc1 [GT-06411, 1-(4-((5-(3,5-dimethylisoxazol-4-yl)-2-methylphenyl)((1-((5-(2,4-dioxotetrahydropyrimidin-1(2H)-yl)pyridin-2-yl)methyl)piperidin-4-yl)methyl)amino)phenyl)cyclopropane-1-carbonitrile] |  |  |  |  |  |  |  | A (A is defined as 0% ≤ substrate protein remaining % ≤ 80%) | IC50 (DU-145): 500 to 1000 nM |

Reference: patent EP4678638A1, “NEW E3 UBIQUITIN LIGASE LIGAND, PROTEIN DEGRADATION AGENT AND USE THEREOF” (priority 2023, dated 2024)
